# Test results reported in patent US20130289019A1, “METHODS OF TREATING BEHAVIORIAL AND/OR MENTAL DISORDERS” (AMAZING GRACE, INC., priority 2012, published 2013).
# “Also recorded” adds a separate entry of the source. Marks after values point to notes of the source that are not given here.
# Columns and labels:
# [1] = system: extracellular ACh in NAcShell; experiment: ACh efflux in NAcShell, infusion by reverse dialysis in freely moving rats; assay type: in vivo, rat; details: for extracellular ACh: 20 min infusion in NAcShell by reverse dialysis, oxotremorine 4 mM (hour following infusion), gallamine 1 mM, scopolamine 10 mM probe concentration; for ACh level in the NAc, effect in words: inventor's data (Chau et al. 2001); for duration of the ACh increase (until return to baseline): gallamine 1 mM: time following the infusion, scopolamine 10 mM
# Procedure: To determine if the M2 drugs act presynaptically on autoreceptors controlling ACh release, freely moving rats received infusions of an M2 agonist or antagonist in the NAcShell for 20 min by reverse dialysis while extracellular ACh was measured.
# To determine if the M2 drugs act presynaptically on autoreceptors controlling ACh release, freely moving rats received infusions of an M2 agonist or antagonist in the NAc for 20 min by reverse dialysis while extracellular ACh was measured.
# [2] = system: glutamatergic NMDA receptor in the NAc; experiment: NMDA receptor antagonists injected into the NAc (Rada et al. 2003); assay type: in vivo; details: Applicant's data (Rada et al. 2003)
# Excerpt: In the NAc, M2/M4 receptors are also located on glutamate-containing axonal terminals that originate from neurons located in corticolimbic and thalamic regions involved in depression and anxiety.
# [3] = system: rats (NAcShell injection); experiment: Porsolt swim test after injection of mAChR agonists and antagonists in the NAcShell; assay type: in vivo, rat; details: for Drug (sec), mean swimming time / Percent change of swimming time vs Ringer / Time diff (sec), drug vs Ringer: 600 sec swim test; for immobility in the swim test, effect in words: infusion into the NAcShell
# Procedure: FIG. 3 is a graph illustrating swimming time following injections of cholinergic drugs in NAc (black bars), compared to Ringer (white bars). (A) Local injection of arecoline, a muscarinic agonist, decreased swim time; the animals quickly gave up (40 μg, −41%, n=8, t=3.53, p<0.01; and 80 μg, −66%, n=6, t=4.12, p<0.01). (B) Pirenzepine, an M1 antagonist, increased swimming escape attempts in the manner of an antidepressant, but note this is a local injection (17.5 μg, n=8, +39%, t=3.63, p<0.01; 35 μg, +40%, n=9, t=7.15, p<0.001). […] (D) Local gallamine, an M2 antagonist, decreased swim time (0.13 μg/side, −21%, n=7, t=3.72, p<0.01; 0.44 μg/side, −37%, n=8, t=2.95, p<0.05; 0.88 μg/side, −36%, n=7, t=4.64, p<0.01). Swimming time following Ringer is normalized to 100%, with each bar representing the mean of the normalized responses across subjects. Swimming time following a drug injection is expressed as a percentage of the swimming time following vehicle injection on a different day. Significant changes in the within-subject response to drug injections are indicated with asterisks (* p<0.05, ** p<0.01, *** p<0.001).
# The Porsolt swim test is an animal model of depression widely used as a screen for drugs with potential antidepressant effects in humans and for elucidating the pharmacological mechanisms of action of antidepressant medications. For example, the following procedure may be used:
# On the first day of this test (day 1), a rodent (typically a rat) is placed in a cylindrical water tank for 15 min. Then after 24 hours (day 2) and 48 hours (day 3), drug and Ringer are administered to the animal in counterbalanced order. Immediately following each injection, the animal is placed in the swim test for 10 min. The length of time it swims during the swim tests is recorded. “Swimming” is defined by escape behaviors (i.e. diving, rigorous paddling with all four legs, circling the tank, and clambering at the tank walls). ‘Immobility’ was scored as floating and treading water just enough to keep the nose above water. Typically, after the first swimming session, animals become behaviorally depressed as shown by swimming less on later test days (day 2 or 3). […] Antidepressants increase swimming without affecting locomotor activity, whereas non-antidepressant drugs such as certain psychostimulants may also decrease immobility, but also increase locomotor activity in the open field test. Therefore, to screen a potential antidepressant, the swim test is typically followed by test for hyperactivity in the open field.
# Rats were placed in the 600 sec (10 min) swim test following injections of drugs in the NAcShell. When not swimming, rats floated or made minimal forepaw movements to keep their noses above water. Each rat received one drug counterbalanced with Ringer on a separate day. The shorter control swim times for the gallamine group, relative to groups that received other drugs, may have been due to a seasonal difference. Control injections, shown in the last line, were made 2 mm dorsal to the accumbens (Pirenzepine Ctrl). Asterisks indicate significant difference between drug and Ringer (* p<0.05; ** p<0.01; *** p<0.001).
# [4] = system: rats (NAcShell injection); experiment: locomotor activity in a photocell cage after drug injection in the NAcShell; assay type: in vivo, rat; details: 10 min following injection in NAcShell; arecoline 40 μg, pirenzepine 35 μg, scopolamine 1 μg, gallamine 0.88 μg
# Procedure: FIG. 4 is a graph illustrating the effects of cholinergic drugs on locomotor activity in a photocell cage. Activity in the 10 min following drug injection in the NAcShell (black bars) is expressed as a percentage of control injections normalized to 100% (white bars).
# FIG. 4 illustrates the effects of cholinergic drugs on locomotor activity in a photocell cage. Activity in the 10 min following drug injection in the NAc (black bars) is expressed as a percentage of control injections normalized to 100% (white bars).
# [5] = system: patients with major depression and bipolar disorder; details: cited from earlier work
# [6] = system: NAcShell of rats (ICSS reward threshold); experiment: discrete trial current-threshold intracranial self-stimulation (ICSS), drugs infused into NAcShell; assay type: in vivo, rat; details: for ICSS threshold change: vs baseline, N=2; for ICSS threshold, effect in words: infused into the NAcShell during the ICSS procedure
# Excerpt: FIG. 2 is a graph illustrating the effect of antagonism of M1 mAChR and agonism of mAChR in the nucleus accumbens shell (NAcShell). The discrete trial current-threshold intracranial self-stimulation paradigm was used to assess the effect of cholinergic drugs infused directly into the NAcShell on reward, independent of performance. See below and Markou and Koob (Neuropsychopharmacology. 1991 January; 4(1):17-26) for detailed description of the paradigm. Thresholds measured in a rat vary little in the 4 pre-drug days (<7% of the mean or baseline). The non-selective mAChR agonist arecoline dose-dependently elevates threshold (0.01 M, +11%; 1.0 M, +57.5%, N=2). Pirenzepine dihydrochloride (Sigma-Aldrich, Saint Louis, Mo.), a selective M1 mAChR antagonist, dose-dependently lowers threshold (0.1 mM, −7%; 100 mM, […], N=2). The drugs were infused into the NAcShell at a steady rate by reversed microdialysis over the hour required to complete threshold testing.
# Anhedonia may be assessed by applying the intracranial self-stimulation (ICSS) paradigm. The ICSS may be used to assess anhedonia, reward, hedonic capacity, and motivation in animals. In this paradigm, a rat performs an operant task (e.g. pressing a bar) to receive rewarding electrical stimulation through electrodes implanted into specific areas of the brain, including the lateral hypothalamus (LH), medial forebrain bundle (MFB), ventral tegmental area containing dopamine neurons (VTA), the nucleus accumbens shell or nucleus accumbens medial core, ventral pallidum, orbitofronal cortex (OPFC), medial frontal cortex (MPFC), cingulate cortex, lateral bed nucleus of the stria terminalis of the amygdala (BNST), mediodorsal thalamus (mdTham), lateral septum, the dorsal raphe containing serotonin neurons, the locus coeruleus containing norepinephrine neurons (see FIG. 1). As noted above, these regions supporting ICSS form an interconnected network commonly referred to as the “brain reward circuitry.”
# A skilled artisan would recognize that variations of the ICSS paradigm may be used. For example, one of the most commonly used ICSS procedures, which has been experimentally validated and has shown to be reward-selective, is the discrete-trial current-intensity threshold procedure. This procedure directly and reliably assesses an animal's sensitivity to rewards, hedonic capacity, and motivation, independent of performance, i.e., ability to move (for detailed procedures see Markou and Koob, Neuropsychopharmacology. 1991 January; 4(1):17-26). The discrete trial current-intensity threshold ICSS procedure provides unique ways to investigate the anatomical and neurochemical basis of reward and motivation and is an important tool for assessing of the reward-facilitating or anhedonic effects of various drugs or medications.
# Lowering of ICSS thresholds indicates facilitation of brain stimulation reward, whereas elevation in ICSS threshold indicates diminished reward value of the stimulation and thus an anhedonic state. Acute administration of most drugs of abuse, including cocaine, amphetamine, nicotine, morphine, and heroin, lower ICSS thresholds in experimental animals, logically because of their rewarding values. By contrast, withdrawal from chronic administration of these drugs elevates ICSS thresholds, indicating an anhedonic state that resembles the negative affective and motivational state of the drug withdrawal syndrome experienced by humans. Elevated ICSS threshold also occurs in animal models of depression. Such elevation in ICSS threshold reflects decreased sensitivity to rewarding stimuli, decreased hedonic capacity or motivation, and/or an aversive and dysphoric affective state of the animal model of depression. Importantly, administration of antidepressants normalizes or lowers ICSS threshold in such animals, indicating a reversal of reward and motivational deficits.
# FIG. 2 is a graph illustrating the effect of antagonism of M1 mAChR and agonism of mAChR in the NAcShell. […]
# [7] = system: NMDA receptor (depressed humans); details: human trials (Zarate et al. 2006); cited from earlier work
# [8] = 17.5 μg/side, control injections 2 mm dorsal to the accumbens
structure (smiles),measurement,setting,value
O=C1CCCN1CC#CCN1CCCC1 [oxotremorine],extracellular ACh,[1],55 % of baseline
same,"ACh level in the NAc, effect in words",[1],decreasing ACh
C[C@]12N[C@H](Cc3ccccc31)c1ccccc12 [dizocilpine],"effect on depression, in words",[2],alleviate depression
CN1[C@@H]2C[C@@H](OC(=O)[C@H](CO)c3ccccc3)C[C@H]1[C@@H]1O[C@@H]12 [Scopolamine],extracellular ACh,[1],220 % of baseline
same,duration of the ACh increase (until return to baseline),[1],more than 100 min
same,"ACh level in the NAc, effect in words",[1],elevates ACh level in the NAc
same,"Drug (sec), mean swimming time",[3]; 0.5 μg/side in NAcShell,306 ± 44 s
same,Percent change of swimming time vs Ringer,[3]; 0.5 μg/side in NAcShell,−12%
same,"Time diff (sec), drug vs Ringer",[3]; 0.5 μg/side in NAcShell,-44 s
same,Percent change of swimming time vs Ringer,"[3]; 0.5 μg/side in NAcShell, listed as scopolamine",N.S.
same,"Drug (sec), mean swimming time",[3]; 1.0 μg/side in NAcShell,541 ± 13*** sec
same,Percent change of swimming time vs Ringer,[3]; 1.0 μg/side in NAcShell,+50%
same,"Time diff (sec), drug vs Ringer",[3]; 1.0 μg/side in NAcShell,+181 sec
same,Percent change of swimming time vs Ringer,"[3]; 1.0 μg/side in NAcShell, listed as scopolamine",+50%
same,"immobility in the swim test, effect in words",[3],decreases immobility
same,"locomotor activity vs Ringer, in words",[4],not significantly different from Ringer; also recorded: without altering activity in the open field
same,rate of remission in female patients,[5]; human trials,≤ 71%
same,duration of antidepressant/anti-anxiety effects,[5]; one single dose,more than 17 days
same,time to reduction of depression and anxiety,"[5]; one single dose, patients with major depression and bipolar disorder",3 to 5 days
COC(=O)C1=CCCN(C)C1 [Arecholine],ICSS threshold change,[6]; arecoline 0.01 M infused into NAcShell by reversed microdialysis over 1 h,+11%
same,ICSS threshold change,[6]; arecoline 1.0 M infused into NAcShell by reversed microdialysis over 1 h,+57.5%
same,"ICSS threshold, effect in words",[6],dose-dependently increases ICSS threshold
same,"Drug (sec), mean swimming time",[3]; 40.0 μg/side in NAcShell,235 ± 17** sec
same,Percent change of swimming time vs Ringer,[3]; 40.0 μg/side in NAcShell,−41%
same,"Time diff (sec), drug vs Ringer",[3]; 40.0 μg/side in NAcShell,-162 s
same,Percent change of swimming time vs Ringer,"[3]; 40.0 μg/side in NAcShell, listed as arecoline",−41%
same,"Drug (sec), mean swimming time",[3]; 80.0 μg/side in NAcShell,109 ± 34** sec
same,Percent change of swimming time vs Ringer,[3]; 80.0 μg/side in NAcShell,−66%
same,"Time diff (sec), drug vs Ringer",[3]; 80.0 μg/side in NAcShell,-209 s
same,Percent change of swimming time vs Ringer,"[3]; 80.0 μg/side in NAcShell, listed as arecoline",−66%
same,"locomotor activity vs Ringer, in words",[4],significantly decreased
CC[N+](CC)(CC)CCOc1cccc(OCC[N+](CC)(CC)CC)c1OCC[N+](CC)(CC)CC [Gallamine],extracellular ACh,[1],437 % of baseline
same,duration of the ACh increase (until return to baseline),[1],20 min
same,"Drug (sec), mean swimming time",[3]; 0.13 μg/side in NAcShell,155 ± 26** sec
same,Percent change of swimming time vs Ringer,[3]; 0.13 μg/side in NAcShell,−21%
same,"Time diff (sec), drug vs Ringer",[3]; 0.13 μg/side in NAcShell,-41 s
same,Percent change of swimming time vs Ringer,"[3]; 0.13 μg/side in NAcShell, listed as gallamine",−21%
same,"Drug (sec), mean swimming time",[3]; 0.44 μg/side in NAcShell,148 ± 24* sec
same,Percent change of swimming time vs Ringer,[3]; 0.44 μg/side in NAcShell,−37%
same,"Time diff (sec), drug vs Ringer",[3]; 0.44 μg/side in NAcShell,-88 s
same,Percent change of swimming time vs Ringer,"[3]; 0.44 μg/side in NAcShell, listed as gallamine",−37%
same,"locomotor activity vs Ringer, in words",[4],not significantly different from Ringer
NC(CCCP(=O)(O)O)C(=O)O (centres unmarked) [AP-5],"effect on depression, in words",[2],alleviate depression
CNC1(c2ccccc2Cl)CCCCC1=O (centres unmarked) [ketamine],"antidepressant effect, in words",[7],rapid antidepressant effect
CN1CCN(CC(=O)N2c3ccccc3C(=O)Nc3cccnc32)CC1 [Pirenzepine],"ICSS threshold, effect in words",[6],dose-dependently lowers ICSS threshold
same,ICSS threshold change,[6]; pirenzepine 0.1 mM infused into NAcShell by reversed microdialysis over 1 h,−7%
same,ICSS threshold change,[6]; pirenzepine 100 mM infused into NAcShell by reversed microdialysis over 1 h,14%
same,"Drug (sec), mean swimming time",[3]; 17.5 μg/side in NAcShell,480 ± 38** sec
same,"Time diff (sec), drug vs Ringer",[3]; 17.5 μg/side in NAcShell,+134 sec
same,"Drug (sec), mean swimming time",[3]; [8],301 ± 34 s
same,Percent change of swimming time vs Ringer,[3]; [8],−10%
same,"Time diff (sec), drug vs Ringer",[3]; [8],-36 s
same,"Drug (sec), mean swimming time",[3]; 35.0 μg/side in NAcShell,412 ± 26*** sec
same,"Time diff (sec), drug vs Ringer",[3]; 35.0 μg/side in NAcShell,+117 sec
same,"immobility in the swim test, effect in words",[3],decreases immobility
same,"locomotor activity vs Ringer, in words",[4],not significantly different from Ringer; also recorded: without altering activity in the open field
